Laboratory results as given in patent US7083799B1, “No-synthase inhibitors” (L'Oreal, priority 1995, dated 2006).

Columns and labels:
[1] = tested on: mouse ear oedema induced by 0.01% 2-(5,6,7,8-tetrahydro-5,5,8,8-tetramethyl-2-naphthyl)-6-benzo[b]thiophenecarboxylic acid; experiment: mouse ear oedema test (ear thickness) induced by topical application of an irritant retinoid; type: in vivo, mouse (Balb/C); conditions: curative
Procedure: This increase in the thickness of the mouse ear appears to be due to an increase in the thickness of the epidermis and to the appearance of a dermal oedema. This response can therefore be easily measured with the aid of an apparatus, such as the oditest.
(§1) 5 (=group 2) of the 10 mice thus treated are made to ingest orally N^G-nitro-L-arginine methyl ester in drinking water from t=0 and once per day for 11 days (N^G-nitro-L-arginine methyl ester concentration of 1 mg/ml, that is to say 170±40 mg/kg per day).
[…] The 5 mice which were not treated with […] constitute group 1.

[2] = observation of toxicity and weight change in mice given the inhibitor orally; type: in vivo, mouse (Balb/C); conditions: oral in drinking water 1 mg/ml (170±40 mg/kg per day), once per day for 11 days
Procedure: as §1

[3] = tested on: mouse ear oedema induced by 0.01% 2-(5,6,7,8-tetrahydro-5,5,8,8-tetramethyl-2-naphthyl)-6-benzo[b]thiophenecarboxylic acid; experiment: mouse ear oedema test (ear thickness) induced by topical application of an irritant retinoid; type: in vivo, mouse (Balb/C)
mouse ear = conditions: in vivo
Procedure: Next, there is topically applied to the ear of these 5 mice previously treated with N^G,N^G-dimethylarginine (group A) and to the ear of 5 untreated mice (group B), at time t=0, 20 μl of an acetone solution comprising 0.01% by weight of 2-(5,6,7,8-tetrahydro-5,5,8,8-tetramethyl-2-naphthyl)-6-benzo[b]thiophenecarboxylic acid. The oedematous response is quantified by measurement of the thickness of the ear.

[4] = 1% by weight, topical from 6 hours after the irritant, once per day for 5 days
[5] = 5%, topical from 6 hours after the irritant, once per day for 5 days, curative
[6] = gel 1% by weight, topical once per day for 4 days before the irritant, preventive, group A vs group B

## COC(=O)[C@@H](N)CCCNC(=N)N[N+](=O)[O-] [N^G-nitro-L-arginine methyl ester, methyl ester of N^G-nitro-L-arginine]
[1]; oral in drinking water 1 mg/ml (170±40 mg/kg per day) from t=0, once per day, after 5 days of treatment
  increase in the thickness of the mouse ear (maximum of group 1 without inhibitor = 100%): 70%
[1]; oral in drinking water 1 mg/ml (170±40 mg/kg per day) from t=0, after 5 days
  inhibition of the ear oedema: 30%
[2]
  change in weight: not modified
  sign of toxicity: no sign of toxicity

## C[N+](C)(C)CC(=O)O [betaine, reference compound]
[1]; [4]
  inhibition of the ear oedema: 9%
  reduction of the area under the curve of the response induced by the irritant product (ear thickness vs days): 24%
[3]; [5]
  inhibition of the ear oedema: 16%
  reduction of the area under the curve of the response induced by the irritant product (ear thickness vs days): 13%

## CNC(=N)NCCC[C@H](N)C(=O)O [L-NMMA, N^G-monomethyl-L-arginine]
[1]; [4]
  inhibition of the ear oedema: 28%
  reduction of the area under the curve of the response induced by the irritant product (ear thickness vs days): 51%
[1]; gel 1% by weight, topical from 6 hours after the irritant, once per day for 5 days, after 5 days
  increase in the thickness of the mouse ear (maximum of group 1 without inhibitor = 100%): 72%

## CN(C)C(N)=NCCC[C@H](N)C(=O)O [N^G,N^G-dimethylarginine]
Mouse ear
  increase in the thickness of the ear by the inhibitor gel alone: No increase
[3]; [6]
  reduction of the amplitude of the response induced by the irritant product: 24%
  reduction of the area under the curve of the response induced by the irritant product (ear thickness vs days): 50%

## CN=C(NC)NCCC[C@H](N)C(=O)O [SDMA, N^G,N^G-dimethyl-L-arginine, reference compound]
[1]; [4]
  inhibition of the ear oedema: 7%
  reduction of the area under the curve of the response induced by the irritant product (ear thickness vs days): 27%
